Tested on: AGS cells (KRAS^G12D)
Assay: Detection of cell proliferation in vitro by MTT/MTS method (cell activity experiment)
Format: cell-based
Conditions: Homo sapiens, AGS, 72 h, AGS cells; MTT/MTS; 3 days of drug treatment; read-out: AGS IC50
Summary of the method: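 KRAS G12D AGS cells seeded at 1000 per well, compound added 24 h later, 0.5% final DMSO. Viability read after 3 days of treatment by MTT (solubilised in DMSO) or MTS, 4 h, absorbance 490 nm. IC50 from dose–response curves versus DMSO control.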

`C#Cc1c(F)ccc2cc(O)cc(-c3ncc4c(N5CC6CCNC6C5)nc(OC[C@@]56CCCN5C[C@H](F)C6)nc4c3F)c12` (stereo partly drawn) [Example 54, 5-ethynyl-6-fluoro-4-(8-fluoro-2-(((2R,7aS)-2-fluorotetrahydro-1H-pyrrolizin-7a(5H)-yl)methoxy)-4-(hexahydropyrrolo[3,4-b]pyrrol-5(1H)-yl)pyrido [4,3-d]pyrimidin-7-yl) naphthalen-2-ol] and `C#Cc1c(F)ccc2cc(O)cc(-c3ncc4c(N5CC6CCC(C5)C6C#N)nc(OC[C@@]56CCCN5C[C@H](F)C6)nc4c3F)c12` (stereo partly drawn) [Example 62, (1R,5S,8S)-3-(7-(8-ethynyl-7-fluoro-3-hydroxynaphthalen-1-yl)-8-fluoro-2-(((2R, 7aS)-2-fluorotetrahydro-1H-pyrrolizin-7a(5H)-yl)methoxy)pyrido[4,3-d]pyrimidin-4-yl)-3-azabicyclo[3.2.1] octane-8-carbonitrile] cannot be ordered by IC50: greater than 2500 nM for the first, greater than 2500 nM for the second.

Compared with `Oc1cc2c(c(-c3ncc4c(N5C[C@H]6CC[C@@H](C5)N6)nc(OC[C@@]56CCCN5C[C@H](F)C6)nc4c3F)c1)C(C1CC1)CC2` (stereo partly drawn) [Example 267, 7-(4-((1R,5S)-3,8-diazabicyclo[3.2.1]octan-3-yl)-8-fluoro-2-(((2R,7aS)-2-fluorotetrahydro-1H-pyrrolizin-7a(5H)-yl)methoxy)pyrido[4,3-d]pyrimidin-7-yl)-1-cyclopropyl-2,3-dihydro-1H-inden-5-ol], `Oc1cc2c(c(-c3ncc4c(N5C[C@H]6CC[C@@H](C5)N6)nc(OC[C@@]56CCCN5C[C@H](F)C6)nc4c3F)c1)C(CC(F)F)CC2` (stereo partly drawn) [Example 258, 7-(4-((1R,5S)-3,8-diazabicyclo[3.2.1]octan-3-yl)-8-fluoro-2-(((2R,7aS)-2-fluorotetrahydro-1H-pyrrolizin-7a(5H)-yl)methoxy)pyrido[4,3-d]pyrimidin-7-yl)-1-(2,2-difluoroethyl)-2,3-dihydro-1H-inden-5-ol] is higher in IC50: 1050 nM for the first, greater than 10000 nM for the second.

`Oc1cc2c(c(C3=C(F)c4nc(OC[C@@]56CCCN5C[C@H](F)C6)nc(N5C[C@H]6CC[C@@H](C5)N6)c4C4=NCCN43)c1)CCCC2` [Example 406, 4-(10-((1R,5S)-3,8-diazabicyclo[3.2.1]octan-3-yl)-6-fluoro-8-(((2R,7aS)-2-fluorotetrahydro-1H-pyrrolizin-7a(5H)-yl)methoxy)-2,3-dihydroimidazo[1′,2′:1,2]pyrido[4,3-d]pyrimidin-5-yl)-5,6,7,8-tetrahydronaphthalen-2-ol] and `Oc1cc2c(c(-c3ncc4c(N5C[C@H]6CC[C@@H](C5)N6)nc(OC[C@@]56CCCN5C[C@H](F)C6)nc4c3F)c1)CC1(CC1)C2` [Example 300, 4′-(4-((1R,5S)-3,8-diazabicyclo[3.2.1]octan-3-yl)-8-fluoro-2-(((2R,7aS)-2-fluorotetrahydro-1H-pyrrolizin-7a(5H)-yl)methoxy)pyrido[4,3-d]pyrimidin-7-yl)-1′,3′-dihydrospiro[cyclopropane-1,2′-inden]-6′-ol] are within 1.5-fold of each other in IC50: 120 nM for the first, 177 nM for the second.

First: Oc1cc(-c2ncc3c(N4C[C@H]5CC[C@@H](C4)C5(F)F)nc(OC[C@@]45CCCN4C[C@H](F)C5)nc3c2F)c2c(F)c(F)ccc2c1 [Example 33, 4-(4-((1R,5S)-8,8-difluoro-3-azabicyclo [3.2.1]octan-3-yl)-8-fluoro-2-(((2R,7aS)-2-fluorotetrahydro-1H-pyrrolizin-7a(5H)-yl)methoxy)pyrido[4,3-d]pyrimidin-7-yl)-5,6-difluoronaphthalen-2-ol]
Second: Oc1cc(-c2ncc3c(N4C[C@H]5CC[C@@H](C4)S5)nc(OC[C@@]45CCCN4C[C@H](F)C5)nc3c2F)c2c(F)cccc2c1 [Example 26, 4-(4-((1R,5S)-8-thia-3-azabicyclo[3.2.1]octan-3-yl)-8-fluoro-2-(((2R, 7aS)-2-fluorotetrahydro-1H-pyrrolizin-7a(5H)-yl)methoxy)pyrido[4,3-d]pyrimidin-7-yl)-5-fluoronaphthalen-2-ol]
The IC50 of the first is higher: greater than 2500 nM for the first, 300 nM for the second.

`C#Cc1c(F)ccc2cc(O)cc(-c3ccc4c(N5CCC(NS(C)(=O)=O)C5)nc(OC[C@@]56CCCN5C[C@H](F)C6)nc4c3F)c12` (stereo partly drawn) [Example 117, N-(1-(7-(8-ethynyl-7-fluoro-3-hydroxynaphthalen-1-yl)-8-fluoro-2-(((2R, 7aS)-2-fluorotetrahydro-1H-pyrrolizin-7a(5H)-yl)methoxy)quinazolin-4-yl)pyrrolidin-3-yl)methanesulfonamide] and `[O-][S+]1C2CCC1CN(c1nc(OC[C@@]34CCCN3C[C@H](F)C4)nc3c(F)c(-c4cc(O)cc5ccc(F)c(F)c45)ccc13)C2` (stereo partly drawn) [Example 165, (1R,5S,8R)-3-(7-(7,8-difluoro-3-hydroxynaphthalen-1-yl)-8-fluoro-2-(((2R,7aS)-2-fluorotetrahydro-1H-pyrrolizin-7a(5H)-yl)methoxy)quinazolin-4-yl)-8-thia-3-azabicyclo[3.2.1]octane 8-oxide] cannot be ordered by IC50: greater than 2500 nM for the first, greater than 2500 nM for the second.

Going from `C#Cc1c(F)ccc2cc(O)cc(-c3ccc4c(N5C[C@H]6CC[C@@H](C5)N6)nc(OC[C@@]56CCCN5C[C@H](F)C6)nc4c3)c12` [Example 148, 4-(4-((1R,5S)-3,8-diazabicyclo[3.2.1]octan-3-yl)-2-(((2R, 7aS)-2-fluorotetrahydro-1H-pyrrolizin-7a(5H)-yl)methoxy)quinazolin-7-yl)-5-ethynyl-6-fluoronaphthalen-2-ol] to `C#Cc1cccc2cc(O)cc(-c3ccc4c(N5C[C@H]6CC[C@@H](C5)N6)c(C#N)c(OC[C@@]56CCCN5C[C@H](F)C6)nc4c3)c12` [Example 173, 4-((1R,5S)-3,8-diazabicyclo[3.2.1]octan-3-yl)-7-(8-ethynyl-3-hydroxynaphthalen-1-yl)-2-(((2R,7aS)-2-fluorotetrahydro-1H-pyrrolizin-7a(5H)-yl)methoxy)quinoline-3-carbonitrile], the IC50 rises from 318 nM to 1450 nM (4.6-fold). The first is the more potent here.

`CCc1cccc2cc(O)cc(N3CCc4c(nc(OC[C@@]56CCCN5C[C@H](F)C6)nc4N4C[C@H]5CC[C@@H](C4)N5)C3)c12` [Example 207, 4-(4-((1R,5S)-3,8-diazabicyclo[3.2.1]octan-3-yl)-2-(((2R,7aS)-2-fluorotetrahydro-1H-pyrrolizin-7a(5H)-yl)methoxy)-5,8-dihydropyrido[3,4-d]pyrimidin-7(6H)-yl)-5-ethylnaphthalen-2-ol] and `CCc1c(F)ccc2cc(O)cc(N3CCc4c(nc(OC[C@@]56CCCN5C[C@H](F)C6)nc4N4C[C@H]5CC[C@@H](C4)N5)C3)c12` [Example 203, 4-(4-((1R,5S)-3,8-diazabicyclo[3.2.1]octan-3-yl)-2-(((2R,7aS)-2-fluorotetrahydro-1H-pyrrolizin-7a(5H)-yl)methoxy)-5,8-dihydropyrido[3,4-d]pyrimidin-7(6H)-yl)-5-ethyl-6-fluoronaphthalen-2-ol] are within 1.5-fold of each other in IC50: 25 nM for the first, 17 nM for the second.

First: C#Cc1cccc2cc(O)cc(-c3ccc4c(N5C[C@H]6CC[C@@H](C5)N6)c(C(F)(F)F)c(OC[C@@]56CCCN5C[C@H](F)C6)nc4c3)c12 [Example 184, 4-(4-((1R,5S)-3,8-diazabicyclo[3.2.1]octan-3-yl)-2-(((2R,7aS)-2-fluorotetrahydro-1H-pyrrolizin-7a(5H)-yl)methoxy)-3-(trifluoromethyl)quinolin-7-yl)-5-ethynylnaphthalen-2-ol]
Second: Oc1cc(C#Cc2ccc3c(N4C[C@H]5CC[C@@H](C4)N5)nc(OC[C@@]45CCCN4C[C@H](F)C5)nc3c2F)c2ccccc2c1 [Example 363, 4-((4-((1R,5S)-3,8-diazabicyclo[3.2.1]octan-3-yl)-8-fluoro-2-(((2R,7aS)-2-fluorotetrahydro-1H-pyrrolizin-7a(5H)-yl)methoxy)quinazolin-7-yl)ethynyl)naphthalen-2-ol]
The IC50 of the first is higher: greater than 2500 nM for the first, 753 nM for the second. The second is the more potent here.

Going from `Oc1cc(-c2ccc3c(N4C[C@H]5CC[C@@H](C4)N5)nc(OC[C@@]45CCCN4C[C@H](F)C5)nc3c2F)c2c(c1)C1CC1C2` (stereo partly drawn) [Example 294, 5-(4-((1R,5S)-3,8-diazabicyclo[3.2.1]octan-3-yl)-8-fluoro-2-(((2R,7aS)-2-fluorotetrahydro-1H-pyrrolizin-7a(5H)-yl)methoxy)quinazolin-7-yl)-1,1a,6,6a-tetrahydrocyclopropa[a]inden-3-ol] to `Oc1cc(N2CCc3c(nc(OC[C@@]45CCCN4C[C@H](F)C5)nc3N3C[C@H]4CC[C@@H](C3)N4)C2)c2c(Cl)c(F)ccc2c1` [Example 208, 4-(4-((1R,5S)-3,8-diazabicyclo[3.2.1]octan-3-yl)-2-(((2R,7aS)-2-fluorotetrahydro-1H-pyrrolizin-7a(5H)-yl)methoxy)-5,8-dihydropyrido[3,4-d]pyrimidin-7(6H)-yl)-5-chloro-6-fluoronaphthalen-2-ol], the IC50 falls from 65 nM to 20 nM (3.2-fold). The second is the more potent here.

Compared with `CCC1CCc2cc(O)cc(-c3cc4nc(OC[C@@]56CCCN5C[C@H](F)C6)nc(N5C[C@H]6CC[C@@H](C5)N6)c4c4occc34)c21` (stereo partly drawn) [Example 386, 7-(9-((1R,5S)-3,8-diazabicyclo[3.2.1]octan-3-yl)-7-(((2R,7aS)-2-fluorotetrahydro-1H-pyrrolizin-7a(5H)-yl)methoxy)furo[2,3-f]quinazolin-4-yl)-1-ethyl-2,3-dihydro-1H-inden-5-ol], `C#Cc1cccc2cc(O)cc(-c3ncc4c(N5C[C@H]6CC[C@@H](C5)S6)nc(OC[C@@]56CCCN5C[C@H](F)C6)nc4c3F)c12` [Example 20, 4-(4-((1R,5S)-8-thia-3-azabicyclo [3.2.1]octan-3-yl)-8-fluoro-2-(((2R, 7aS)-2-fluorotetrahydro-1H-pyrrolizin-7a(5H)-yl)methoxy)pyrido [4,3-d]pyrimidin-7-yl)-5-ethynylnaphthalen-2-ol] is 1.9-fold lower in IC50: 508 nM for the first, 271 nM for the second.

For `Oc1cc(-c2ccc3c(N4C[C@H]5CC[C@@H](C4)N5)nc(OCC4(CN5CCCC5)CC4)nc3c2F)c2c(F)c(F)ccc2c1` [Example 101, 4-(4-((1R,5S)-3,8-diazabicyclo[3.2.1]octan-3-yl)-8-fluoro-2-((1-(pyrrolidin-1-ylmethyl)cyclopropyl)methoxy)quinazolin-7-yl)-5,6-difluoronaphthalen-2-ol], the IC50 was 9.4 nM.
